Reference: the NIST ThermoML archive (doi:10.1021/acs.jced.8b00948)

Experiment: xn = mol fraction of the nth substance listed
Conditions: for surface tension liquid-gas: Pendant drop shape; for viscosity: 101 kPa, Liquid, Concentric cylinders viscometry

COS(=O)(=O)[O-].Cn1cc[n+](C)c1 [1,3-dimethylimidazolium methylsulfate] + CCCCCO
Conditions	surface tension liquid-gas, 298.15 K [mN/m]	surface tension liquid-gas, 303.15 K [mN/m]	surface tension liquid-gas, 308.15 K [mN/m]	surface tension liquid-gas, 313.15 K [mN/m]	viscosity, 298.15 K [mPa·s]	viscosity, 303.15 K [mPa·s]	viscosity, 308.15 K [mPa·s]	viscosity, 313.15 K [mPa·s]
x1 = 0.1	28	27.6	27.2	26.9	9.23	7.19	6.2	5.25
x1 = 0.35	36.2	35.9	35.6	35.3	24.7	19.4	15.7	12.7
x1 = 0.54	42.6	42.3	42	41.7	38.2	29.9	24.1	19.8
x1 = 0.661	46.7	46.4	46.1	45.8	47.7	37.3	30	24.7
x1 = 0.79	51.1	50.8	50.5	50.3	58.9	46.5	37.5	30.8
x1 = 0.931	56.1	55.8	55.5	55.2	71.8	57.1	46	37.8
x1 = 1	58.5	58.2	57.9	57.6	78	61.9	49.9	40.9

COS(=O)(=O)[O-].Cn1cc[n+](C)c1 [1,3-dimethylimidazolium methylsulfate] + CCCCO
Conditions	surface tension liquid-gas, 298.15 K [mN/m]	surface tension liquid-gas, 303.15 K [mN/m]	surface tension liquid-gas, 308.15 K [mN/m]	surface tension liquid-gas, 313.15 K [mN/m]	viscosity, 298.15 K [mPa·s]	viscosity, 303.15 K [mPa·s]	viscosity, 308.15 K [mPa·s]	viscosity, 313.15 K [mPa·s]
x1 = 0.063	26	25.6	25.2	24.8	5.34	4.58	3.86	3.2
x1 = 0.221	31.2	30.9	30.6	30.2	13.5	10.5	8.53	7.18
x1 = 0.432	38.3	38.1	37.8	37.5	26.3	20.2	16.1	13.6
x1 = 0.64	45.5	45.3	45	44.7	41.4	32.6	26.1	21.9
x1 = 0.781	50.5	50.3	50	49.7	54	43.3	34.8	29
x1 = 0.927	55.8	55.5	55.2	55	69.7	55.5	45	37
x1 = 1	58.5	58.2	57.9	57.6	78	61.9	49.9	40.9

COS(=O)(=O)[O-].Cn1cc[n+](C)c1 [1,3-dimethylimidazolium methylsulfate] + CCCO
Conditions	surface tension liquid-gas, 298.15 K [mN/m]	surface tension liquid-gas, 303.15 K [mN/m]	surface tension liquid-gas, 308.15 K [mN/m]	surface tension liquid-gas, 313.15 K [mN/m]	viscosity, 298.15 K [mPa·s]	viscosity, 303.15 K [mPa·s]	viscosity, 308.15 K [mPa·s]	viscosity, 313.15 K [mPa·s]
x1 = 0.039	24.5	24	23.6	23.2	3.15	2.97	2.53	2.2
x1 = 0.208	30.1	29.8	29.4	29.1	10.7	8.55	6.76	6.05
x1 = 0.382	36.1	35.8	35.5	35.2	19.6	15.4	12.2	10.5
x1 = 0.561	42.3	42.1	41.8	41.6	31.3	25.1	20.1	16.8
x1 = 0.702	47.4	47.2	46.9	46.6	42.5	34.7	28.1	23.2
x1 = 0.912	55.1	54.9	54.6	54.3	65.2	52.9	42.7	35.3
x1 = 1	58.5	58.2	57.9	57.6	78	61.9	49.9	40.9

CCn1cc[n+](C)c1.COS(=O)(=O)[O-] [1-ethyl-3-methylimidazolium methylsulfate] + CCCCCO
Conditions	surface tension liquid-gas, 298.15 K [mN/m]	surface tension liquid-gas, 303.15 K [mN/m]	surface tension liquid-gas, 308.15 K [mN/m]	surface tension liquid-gas, 313.15 K [mN/m]	viscosity, 298.15 K [mPa·s]	viscosity, 303.15 K [mPa·s]	viscosity, 308.15 K [mPa·s]	viscosity, 313.15 K [mPa·s]
x1 = 0.05	26.1	25.7	25.3	24.9	5.15	4.07	3.74	3.24
x1 = 0.284	32.3	32	31.6	31.3	14.8	11.9	10.2	8.52
x1 = 0.459	37.1	36.8	36.5	36.2	24.4	19.4	16.3	13.6
x1 = 0.613	41.4	41.1	40.8	40.5	34.7	27.3	22.5	18.7
x1 = 0.768	45.8	45.5	45.2	44.9	46.9	37	30.5	25.2
x1 = 0.922	50.3	50	49.7	49.4	60.9	48.8	40.1	33.3
x1 = 1	52.5	52.2	51.9	51.6	68.5	55.4	45.5	37.9

CCn1cc[n+](C)c1.COS(=O)(=O)[O-] [1-ethyl-3-methylimidazolium methylsulfate] + CCCCO
Conditions	surface tension liquid-gas, 298.15 K [mN/m]	surface tension liquid-gas, 303.15 K [mN/m]	surface tension liquid-gas, 308.15 K [mN/m]	surface tension liquid-gas, 313.15 K [mN/m]	viscosity, 298.15 K [mPa·s]	viscosity, 303.15 K [mPa·s]	viscosity, 308.15 K [mPa·s]	viscosity, 313.15 K [mPa·s]
x1 = 0.041	25	24.7	24.3	23.9	3.84	3.3	2.86	2.45
x1 = 0.219	29.9	29.5	29.2	28.9	10.7	8.75	7.38	6.22
x1 = 0.417	35.3	35.1	34.7	34.5	20.3	16.4	13.8	11.4
x1 = 0.571	39.8	39.5	39.2	38.9	29	23.4	19.5	16.2
x1 = 0.731	44.4	44.2	43.9	43.6	41.1	33.1	27.5	22.8
x1 = 0.909	49.8	49.5	49.2	48.9	58.2	46.8	38.4	31.8
x1 = 1	52.5	52.2	51.9	51.6	68.5	55.4	45.5	37.9

CCn1cc[n+](C)c1.COS(=O)(=O)[O-] [1-ethyl-3-methylimidazolium methylsulfate] + CCCO
Conditions	surface tension liquid-gas, 298.15 K [mN/m]	surface tension liquid-gas, 303.15 K [mN/m]	surface tension liquid-gas, 308.15 K [mN/m]	surface tension liquid-gas, 313.15 K [mN/m]	viscosity, 298.15 K [mPa·s]	viscosity, 303.15 K [mPa·s]	viscosity, 308.15 K [mPa·s]	viscosity, 313.15 K [mPa·s]
x1 = 0.059	24.8	24.4	24	23.6	3.71	3.14	2.72	2.36
x1 = 0.228	29.5	29.1	28.8	28.5	9.94	8.07	6.8	5.75
x1 = 0.375	33.6	33.4	33.1	32.8	17	13.7	11.6	9.72
x1 = 0.524	38	37.7	37.4	37.2	24.7	19.8	16.6	13.9
x1 = 0.72	43.8	43.6	43.3	43	38.9	31.3	25.9	21.6
x1 = 0.874	48.6	48.3	48	47.7	52.7	42.5	35.1	29.2
x1 = 1	52.5	52.2	51.9	51.6	68.5	55.4	45.5	37.9
